Measured values reported in PMC9037349, “Elucidation of molecular interactions of theaflavin monogallate with camel milk lactoferrin: detailed spectroscopic and dynamic simulation studies” (RSC Advances, 2021).

Target: T1, camel milk lactoferrin (Camelus dromedarius, UniProt Q9TUM0)
T1 construct: gene LTF; lactoferrin isolated and purified from camel milk
T1 sequence (Q9TUM0 20-708): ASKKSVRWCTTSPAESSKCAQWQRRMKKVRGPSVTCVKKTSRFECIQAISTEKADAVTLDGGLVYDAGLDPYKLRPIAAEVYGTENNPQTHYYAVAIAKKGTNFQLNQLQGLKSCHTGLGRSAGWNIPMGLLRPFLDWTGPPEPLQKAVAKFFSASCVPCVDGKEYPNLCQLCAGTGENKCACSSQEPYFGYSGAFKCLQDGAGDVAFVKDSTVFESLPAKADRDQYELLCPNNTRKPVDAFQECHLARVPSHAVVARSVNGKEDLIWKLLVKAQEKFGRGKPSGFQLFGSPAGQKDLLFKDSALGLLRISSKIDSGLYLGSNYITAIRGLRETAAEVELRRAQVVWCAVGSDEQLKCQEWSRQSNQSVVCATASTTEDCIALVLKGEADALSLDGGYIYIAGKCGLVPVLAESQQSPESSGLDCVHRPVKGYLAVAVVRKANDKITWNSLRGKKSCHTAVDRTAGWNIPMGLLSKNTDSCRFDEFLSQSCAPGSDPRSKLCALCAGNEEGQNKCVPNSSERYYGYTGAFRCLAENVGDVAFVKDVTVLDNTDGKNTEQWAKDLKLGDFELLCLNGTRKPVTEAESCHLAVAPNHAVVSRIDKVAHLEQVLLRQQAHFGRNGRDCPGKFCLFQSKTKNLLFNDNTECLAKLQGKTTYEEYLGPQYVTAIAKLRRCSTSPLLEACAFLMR
Test: intrinsic fluorescence quenching titration (static; modified Stern-Volmer, […] K), supported by FRET, ANS fluorescence and CD
Assay type: binding
Details: read-out: K a × 10^4 (M^-1) (converted)

Kd: 23.4 µM
Compound: O=C(O[C@@H]1Cc2c(O)cc(O)cc2O[C@@H]1c1cc(O)c(=O)c2c(O)c(O)cc([C@H]3Oc4cc(O)cc(O)c4C[C@H]3O)c2c1)c1cc(O)c(O)c(O)c1 [theaflavin monogallate]
